In patent publication US5002933A, “Hexapeptide and medicinal preparation produced from it to treat erosive and ulcerative lesions of gastrointestinal tract” (priority 1987, dated 1991):
Square brackets hold non-standard residues; d marks the D form. Ends that are not written are not given here.

Key:
acute toxicity tests = assay type: in vivo
[1] = blood cell composition and haemodynamic indices in the experiments; assay type: in vivo; conditions: in the experiments with the proposed hexapeptide
[2] = tested on: cysteamine-induced duodenal ulcer; assay: cysteamine-induced duodenal ulcer, oral administration; assay type: in vivo, rats; conditions: for Lesion scoring: given immediately and 6 h after cysteamine, score 0-4, 24 h; for Incidence: ratio of animals with ulcer to survivals; for Ulcer index: severity of lesion + doubled incidence; for Ulcer index reduction, %: versus control group
Experimental: The efficacy of the proposed hexapeptide has been studied on experimental animals. Vister male rats were used to compare the therapeutic efficacy of the proposed preparation with that of the known preparations.
Duodenal ulcer was induced in experimental animals by subcutaneous administration of cysteamine hydrochloride in a dose of 350 mg per kg body weight (in 0.5 ml of physiological saline). The proposed preparation was given to the rats immediately and in 6 hours following the administration of the provoking agent. The proposed hexapeptide was given into the stomach through a gastric tube in doses of 10 and 100 mcg/kg; the known hexapeptide (U.S. Pat. No. 4,565,705) was given in a dose of 100 mcg/kg (cimetidine in a dose 10 mg/kg) in 0.5 ml of a 3 percent milk (five-fold diluted in physiological saline). Control animals were given 0.5 ml of a 3 percent milk diluted in a 5-fold volume of physiological saline immediately after administration of cysteamine hydrochloride and 6 hours later. The animals were sacrificed by decapitation in 24 hours after administration of cysteamine hydrochloride and the condition of the duodenal mucosa was assessed in them.
The severity of lesion was determined for each group of the rats using the following scoring system: 0--absense of ulceration; 1--erosion; 2--single ulcer; 3--multiple ulcers; 4--perforating ulcer. Besides, the incidence of lesion was determined in each group: the ratio of the animals with ulcer to the total number of survivals by the end of the experiment was determined. A conventional ulcer index (severity of lesion+doubled incidence of affections) was thus derived as the summary involvement index.
The obtained findings were treated statistically using the Student t-criterion (for severity of lesion) and Pirson X^2 criterion (for the incidence). The differences at the level of 95 percent significance were taken as trustworthy (P<0.05).

[3] = solubility of the hexapeptide powder; assay type: physicochemical
[4] = tested on: indomethacin-induced ulcers of the small intestine; assay: indomethacin-induced ulcers of the small intestine; assay type: in vivo, rats; conditions: for Average number of ulcers: 30-cm distal small intestine, 24 h after indomethacin 20 mg/kg
Experimental: The proposed hexapeptide was also studied in experiments with indomethacin-induced ulcers of the small intestine. The efficacy of the proposed hexapeptide was compared with that of sulfasalazine. Indomethacin was given to the rats into the stomach through a tube in a dose of 20 mg/kg, in the form of a suspension in 0.5 ml of physiological saline. The proposed hexapeptide or sulfasalazine were given in doses of 100 μg/kg or 200 mg/kg respectively immediately after administration of indomethacin or 6 hours later. Indomethacin was given with 0.5 ml of a 3% milk diluted in 5 volumes of physiological saline. The same amount of the milk solution was given to the control animals. The rats were decapitated in 24 hours after the administration of indomethacin and the number of ulcers on the mucosa of a 30-cm long distal small intestine was counted. […] The average number of ulcers was determined for each group of the animals.
The findings were processed statistically using the Student t-criterion. Differences at the significance level of 95 % were taken as trustworthy (at P<0.05).

Y[dA]GFLE [proposed hexapeptide]
LD50 (acute toxicity tests): 250 mg/kg
changes in the cell composition of the blood [1]: No changes
changes in the main haemodynamic indices [1]: No changes
Lesion scoring ([2]; 10 μg/kg per os): 1.60
Incidence ([2]; 10 μg/kg per os): 0.80
Ulcer index ([2]; 10 μg/kg per os): 3.20
Ulcer index reduction, % ([2]; 10 μg/kg per os): 18%
Lesion scoring ([2]; 100 μg/kg per os): 0.83
Incidence ([2]; 100 μg/kg per os): 0.31
Ulcer index ([2]; 100 μg/kg per os): 1.45
Ulcer index reduction, % ([2]; 100 μg/kg per os): 63%
anti-ulcer activity relative to cimetidine ([2]; dose comparison, 100 μg/kg versus cimetidine 10 mg/kg, duodenum): 100 times
solubility ([3]; distilled water, physiological saline, alcohol): readily soluble
solubility ([3]; ether, ethyl actate, benzene, or hexane): insoluble
Average number of ulcers ([4]; 100 μg/kg): 23.40 ± 5.36
decrease of the average number of ulcers in the distal small intestine ([4]; 100 μg/kg, versus control): 52%
anti-ulcer activity relative to sulfasalazine ([4]; dose comparison, 100 μg/kg versus sulfasalazine 200 mg/kg, small intestine): 2000 times

O=C(O)c1cc(/N=N/c2ccc(S(=O)(=O)Nc3ccccn3)cc2)ccc1O [sulfasalazine, reference compound]
decrease of the number of ulcers in the intestine ([4]; 200 mg/kg, versus control): 46%
Average number of ulcers ([4]; sulfasalazine 200 mg/kg): 27.50 ± 5.28

CN/C(=N/CCSCc1nc[nH]c1C)NC#N [cimetidine, reference compound]
Lesion scoring ([2]; 10 mg/kg per os): 1.00
Incidence ([2]; 10 mg/kg per os): 0.33
Ulcer index ([2]; 10 mg/kg per os): 1.66
Ulcer index reduction, % ([2]; 10 mg/kg per os): 57%
